Experimental data reported in PubChem BioAssay AID328 (DTP/NCI, 2004).
Values joined by “and” are separate entries in the source; they are usually repeats but may differ in a detail not shown here. Equal entries are not always repeated. Toxic doses and inconclusive results are not listed.

Tested on: BDF1 mice, P388 leukemia ip, median survival T/C
Assay: NCI In Vivo Anticancer Drug Screen. Data for tumor model P388 Leukemia (intraperitoneal) in B6D2F1 (BDF1) mice
Details: endpoint: median survival time, higher = longer survival
Procedure, shortened: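 Mice carrying the transplantable tumour receive compound or vehicle. Survival is followed in each arm, and the treated measure is divided by the vehicle measure.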

[1] = dose: 50.0 mg/kg/injection, schedule: Q01DX009 (ip), vehicle: saline
[2] = dose: 50.0 mg/kg/injection, schedule: Q04DX003 (ip), vehicle: saline
[3] = dose: 100.0 mg/kg/injection, schedule: Q01DX009 (ip), vehicle: saline
[4] = dose: 200.0 mg/kg/injection, schedule: Q04DX003 (ip), vehicle: saline
[5] = dose: 400.0 mg/kg/injection, schedule: Q04DX003 (ip), vehicle: saline
[6] = dose: 50.0 mg/kg/injection, schedule: Q01DX009 (ip), vehicle: saline with Tween-80
[7] = dose: 100.0 mg/kg/injection, schedule: Q01DX009 (ip), vehicle: saline with Tween-80
[8] = dose: 200.0 mg/kg/injection, schedule: Q01DX009 (ip), vehicle: saline with Tween-80
[9] = dose: 100.0 mg/kg/injection, schedule: Q01DX009 (ip), vehicle: Klucel (hydroxypropylcellulose) (HPC)
[10] = dose: 100.0 mg/kg/injection, schedule: Q04DX003 (ip), vehicle: saline with Tween-80
[11] = dose: 200.0 mg/kg/injection, schedule: Q04DX003 (ip), vehicle: saline with Tween-80

CC#CCOCC1CN(C)C(=O)O1 (stereo not drawn)
T/C (dose: 25.0 mg/kg/injection, schedule: Q01DX009 (ip), vehicle: saline): 95 % of control
T/C [1]: 100 % of control
T/C [2]: 100 % of control
T/C [3]: 109 % of control
T/C (dose: 200.0 mg/kg/injection, schedule: Q01DX009 (ip), vehicle: saline): 95 % of control
T/C [4]: 91 % of control
T/C [5]: 87 % of control

[Cl][Cr]([Cl])[Cl].[NH-]CC[N-]CC[NH-]
T/C [6]: 116 % of control
T/C [7]: 100 % of control
T/C [8]: 100 % of control

CCCCNC(C)(C)C(SS)c1ccc(C(F)(F)F)cc1 (stereo not drawn)
T/C (dose: 6.25 mg/kg/injection, schedule: Q04DX003 (ip), vehicle: other): 100 % of control
T/C (dose: 12.5 mg/kg/injection, schedule: Q04DX003 (ip), vehicle: other): 105 % of control
T/C (dose: 25.0 mg/kg/injection, schedule: Q04DX003 (ip), vehicle: other): 110 % of control

CC(C(=O)O)[Se](=O)O (stereo not drawn)
T/C (dose: 12.5 mg/kg/injection, schedule: Q04DX003 (ip), vehicle: saline): 101 % of control
T/C (dose: 25.0 mg/kg/injection, schedule: Q04DX003 (ip), vehicle: saline): 101 % of control
T/C [2]: 100 % of control

CCCCNC(C)C1(O)Cc2c(O)c3c(c(O)c2C(OC2CC(N)C(O)C(C)O2)C1)C(=O)c1c(OC)cccc1C3=O (stereo not drawn)
T/C (dose: 10.0 mg/kg/injection, schedule: Q01DX009 (ip), vehicle: water): 157 % of control
T/C (dose: 20.0 mg/kg/injection, schedule: Q01DX009 (ip), vehicle: water): 168 % of control
T/C (dose: 25.0 mg/kg/injection, schedule: Q04DX003 (ip), vehicle: water): 116 % of control
T/C (dose: 40.0 mg/kg/injection, schedule: Q01DX009 (ip), vehicle: water): 185 % of control
T/C (dose: 50.0 mg/kg/injection, schedule: Q04DX003 (ip), vehicle: water): 114 % of control
T/C (dose: 100.0 mg/kg/injection, schedule: Q04DX003 (ip), vehicle: water): 105 % of control
T/C (dose: 200.0 mg/kg/injection, schedule: Q04DX003 (ip), vehicle: water): 151 % of control
T/C (dose: 400.0 mg/kg/injection, schedule: Q04DX003 (ip), vehicle: water): 118 % of control

CCOC(=O)CN1CCC2CC1c1c([nH]c3ccccc13)C21OCCO1 (stereo not drawn)
T/C (dose: 0.06 mg/kg/injection, schedule: Q01DX009 (ip), vehicle: saline): 105 % of control
T/C (dose: 0.12 mg/kg/injection, schedule: Q01DX009 (ip), vehicle: saline): 95 % of control
T/C (dose: 0.25 mg/kg/injection, schedule: Q01DX009 (ip), vehicle: saline): 100 % of control
T/C (dose: 0.5 mg/kg/injection, schedule: Q01DX009 (ip), vehicle: saline): 105 % of control
T/C (dose: 1.0 mg/kg/injection, schedule: Q01DX009 (ip), vehicle: saline): 105 % of control
T/C (dose: 2.0 mg/kg/injection, schedule: Q01DX009 (ip), vehicle: saline): 100 % of control
T/C (dose: 8.0 mg/kg/injection, schedule: Q01DX009 (ip), vehicle: saline): 98 % of control
T/C (dose: 16.0 mg/kg/injection, schedule: Q01DX009 (ip), vehicle: saline): 102 % of control
T/C (dose: 32.0 mg/kg/injection, schedule: Q01DX009 (ip), vehicle: saline): 104 % of control

CC1(C)OS2(c3ccccc3)OC(=O)c3cccc1c32 (stereo not drawn)
T/C (dose: 50.0 mg/kg/injection, schedule: Q04DX002 (ip), vehicle: saline): 94 % of control
T/C (dose: 100.0 mg/kg/injection, schedule: Q04DX002 (ip), vehicle: saline): 100 % of control
T/C (dose: 200.0 mg/kg/injection, schedule: Q04DX002 (ip), vehicle: saline): 100 % of control

N/N=C(/C=C/C(=O)O)c1ccccc1
T/C (dose: 100.0 mg/kg/injection, schedule: Q01DX001 (ip), vehicle: saline sonified): 100 % of control
T/C (dose: 200.0 mg/kg/injection, schedule: Q01DX001 (ip), vehicle: saline sonified): 109 % of control
T/C (dose: 400.0 mg/kg/injection, schedule: Q01DX001 (ip), vehicle: saline sonified): 100 % of control

CC1(C)CC(C)(c2ccccc2)c2ccccc21 (stereo not drawn)
T/C [9]: 120 % of control
T/C (dose: 100.0 mg/kg/injection, schedule: Q04DX003 (ip), vehicle: other): 109 % of control
T/C (dose: 132.0 mg/kg/injection, schedule: Q01DX009 (ip), vehicle: Klucel (hydroxypropylcellulose) (HPC)): 90 % of control
T/C (dose: 200.0 mg/kg/injection, schedule: Q04DX003 (ip), vehicle: other): 114 % of control
T/C (dose: 300.0 mg/kg/injection, schedule: Q01DX009 (ip), vehicle: Klucel (hydroxypropylcellulose) (HPC)): 100 % of control
T/C (dose: 400.0 mg/kg/injection, schedule: Q04DX003 (ip), vehicle: other): 104 % of control

O=[N+]([O-])c1ccc(N(CCO)CCO)c2c1no[n+]2[O-]
T/C (dose: 7.5 mg/kg/injection, schedule: Q01DX009 (ip), vehicle: saline with Tween-80): 112 % of control
T/C (dose: 15.0 mg/kg/injection, schedule: Q01DX009 (ip), vehicle: saline with Tween-80): 112 % of control
T/C (dose: 30.0 mg/kg/injection, schedule: Q01DX009 (ip), vehicle: saline with Tween-80): 113 % of control
T/C (dose: 32.0 mg/kg/injection, schedule: Q04DX003 (ip), vehicle: saline with Tween-80): 160 % of control
T/C (dose: 64.0 mg/kg/injection, schedule: Q04DX003 (ip), vehicle: saline with Tween-80): 121 % of control

[N-]=[N+]=CC(=O)NCC(=O)NN
T/C (dose: 50.0 mg/kg/injection, schedule: Q01DX010 (ip), vehicle: water): 120 % of control
T/C (dose: 200.0 mg/kg/injection, schedule: Q01DX010 (ip), vehicle: water): 166 % of control and 175 % of control
T/C (dose: 400.0 mg/kg/injection, schedule: Q01DX010 (ip), vehicle: saline): 181 % of control

COc1ccc(/C(C)=C\C(=O)O)cc1
T/C [10]: 100 % of control
T/C [11]: 100 % of control
T/C (dose: 400.0 mg/kg/injection, schedule: Q04DX003 (ip), vehicle: saline with Tween-80): 95 % of control

C(/C=C/C=C/Nc1ccc(N=Nc2ccccc2)cc1)=Nc1ccc(N=Nc2ccccc2)cc1
T/C (dose: 100.0 mg/kg/injection, schedule: Q04DX003 (ip), vehicle: saline): 90 % of control
T/C [4]: 104 % of control
T/C [5]: 95 % of control

C1=Cc2c3c(c4c(c2C1)C=CC4)C=CC3
T/C [6]: 91 % of control
T/C [7]: 93 % of control
T/C [8]: 95 % of control

Cc1c([C@H](C)[C@@H]2NC[C@@H](C)C[C@H]2O)ccc2c1C[C@H]1[C@H]2CC=C2C[C@@H](O)CC[C@@]21C
T/C (dose: 3.0 mg/kg/injection, schedule: Q01DX010 (ip), vehicle: carboxymethylcellulose (CMC)): 115 % of control

O=C(O)CCCCCS
T/C (dose: 50.0 mg/kg/injection, schedule: Q01DX009 (ip), vehicle: Klucel (hydroxypropylcellulose) (HPC)): 100 % of control
T/C [9]: 102 % of control
T/C (dose: 200.0 mg/kg/injection, schedule: Q01DX009 (ip), vehicle: Klucel (hydroxypropylcellulose) (HPC)): 99 % of control

CCC(=O)c1cc([N+](=O)[O-])ccc1N
T/C (dose: 50.0 mg/kg/injection, schedule: Q04DX003 (ip), vehicle: saline with Tween-80): 90 % of control
T/C [10]: 95 % of control
T/C [11]: 109 % of control

CC[C@@H](c1ccc(O)cc1)[C@@H](CC)c1ccc(O)cc1
T/C [1]: 90 % of control
T/C [3]: 109 % of control
T/C (dose: 100.0 mg/kg/injection, schedule: Q04DX003 (ip), vehicle: alcohol): 94 % of control
T/C (dose: 200.0 mg/kg/injection, schedule: Q04DX003 (ip), vehicle: alcohol): 100 % of control

[Cl][Hg][Cl].c1cnccn1
T/C (dose: 0.25 mg/kg/injection, schedule: Q01DX009 (ip), vehicle: saline with Tween-80): 104 % of control
T/C (dose: 0.5 mg/kg/injection, schedule: Q01DX009 (ip), vehicle: saline with Tween-80): 96 % of control and 109 % of control
T/C (dose: 2.0 mg/kg/injection, schedule: Q04DX003 (ip), vehicle: saline with Tween-80): 95 % of control and 100 % of control
T/C (dose: 4.0 mg/kg/injection, schedule: Q01DX009 (ip), vehicle: saline with Tween-80): 96 % of control
T/C (dose: 4.0 mg/kg/injection, schedule: Q04DX003 (ip), vehicle: saline with Tween-80): 95 % of control and 96 % of control
T/C (dose: 5.0 mg/kg/injection, schedule: Q04DX003 (ip), vehicle: saline with Tween-80): 116 % of control
T/C (dose: 8.0 mg/kg/injection, schedule: Q04DX003 (ip), vehicle: saline with Tween-80): 111 % of control and 119 % of control

COC(=O)C1(C)CCCC2(C)C1CCC13OCC(CC21)C(=C(C)C)C3OC(C)=O (stereo not drawn)
T/C [7]: 100 % of control
T/C [8]: 100 % of control
T/C (dose: 400.0 mg/kg/injection, schedule: Q01DX009 (ip), vehicle: saline with Tween-80): 90 % of control
